According to paper PMC11696576, “Next generation thiazolyl ketone inhibitors of cytosolic phospholipase A2 α for targeted cancer therapy” (Nature Communications, 2025):
“And” between values parts separate entries of the source, which are not always exact repeats. Equal values may be shown once. Read-outs that look alike come from different tables or passages of the source.

Columns and labels:
[1] = target: T1, human calcium-independent GVIA iPLA2 (Homo sapiens, UniProt O60733); assay: radioactivity-based mixed micelle assay, GVIA iPLA2; assay type: biochemical
T1 sequence (O60733 1-806): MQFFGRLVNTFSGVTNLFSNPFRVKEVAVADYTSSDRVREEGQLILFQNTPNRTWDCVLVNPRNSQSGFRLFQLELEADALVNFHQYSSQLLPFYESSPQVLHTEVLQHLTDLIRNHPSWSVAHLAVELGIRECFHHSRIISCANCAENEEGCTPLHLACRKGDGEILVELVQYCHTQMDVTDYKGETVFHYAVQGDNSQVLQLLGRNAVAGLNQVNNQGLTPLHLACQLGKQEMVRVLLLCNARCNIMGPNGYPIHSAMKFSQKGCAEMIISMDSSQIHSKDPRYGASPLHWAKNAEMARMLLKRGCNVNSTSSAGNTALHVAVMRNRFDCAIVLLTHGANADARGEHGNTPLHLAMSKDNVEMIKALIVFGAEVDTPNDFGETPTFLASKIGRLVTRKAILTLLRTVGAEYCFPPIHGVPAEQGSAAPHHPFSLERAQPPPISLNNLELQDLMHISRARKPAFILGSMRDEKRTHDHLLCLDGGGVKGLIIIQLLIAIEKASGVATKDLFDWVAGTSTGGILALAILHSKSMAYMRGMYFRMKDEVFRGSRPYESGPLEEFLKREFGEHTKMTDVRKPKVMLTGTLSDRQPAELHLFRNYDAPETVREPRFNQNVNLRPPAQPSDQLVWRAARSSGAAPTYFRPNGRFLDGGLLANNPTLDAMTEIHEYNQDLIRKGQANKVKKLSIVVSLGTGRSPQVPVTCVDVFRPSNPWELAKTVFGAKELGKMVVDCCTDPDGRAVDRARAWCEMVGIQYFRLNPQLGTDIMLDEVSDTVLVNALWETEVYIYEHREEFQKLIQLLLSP
Protocol: (§1) All synthesized thiazolyl ketones were tested for their in vitro inhibitory activity on recombinant human cPLA2α and selectivity over human calcium-independent GVIA iPLA2 and secreted GV sPLA2 using our previously described group-specific radioactivity-based mixed micelle assays. The inhibition results are presented either as per cent inhibition or as XI(50) values in Table 1. […] The XI(50) is defined as the mole fraction of the inhibitor in the total substrate interface required to inhibit the enzyme activity by 50%. For comparison purposes, previously published data for the inhibitor GK470[19] are included. […] Inhibitors were initially screened at 0.091 mol fraction (5 μL of 5 mM inhibitor in DMSO) in substrate (495 μL) in technical triplicates. […] The XI(50) value and stdev values reported are for the entire curve. This analysis was performed in GraphPad Prism v6.

[2] = target: T2, secreted GV sPLA2 (Homo sapiens, UniProt P39877); assay: radioactivity-based mixed micelle assay, GV sPLA2; assay type: biochemical
T2 sequence (P39877 21-138): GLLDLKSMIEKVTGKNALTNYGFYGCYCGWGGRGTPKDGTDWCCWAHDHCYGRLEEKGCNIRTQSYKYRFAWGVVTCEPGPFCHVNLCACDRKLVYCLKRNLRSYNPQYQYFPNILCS
Protocol: as §1

[3] = test system: SW982 synoviocytes; assay: cellular arachidonic acid (AA) release assay, IL-1β stimulated; assay type: cell-based, human; settings: for inhibition at 5 µM: SW982, 5 µM; for EC50 / IC50: SW982; for IC50: concentration in µM, read-out: logEC50 best-fit value, AA release (converted)
Description: To test the inhibitory activity of the compounds in cells, we measured their effect on the release of AA from synoviocytes stimulated with IL-1β (Table 2). […] Combined with favorable selectivity and stability it was thus chosen for further evaluation. We looked specifically at how it modulated eicosanoid levels in response to stimulation both in whole blood and in isolated peripheral blood mononuclear cells (PBMCs) and checked for off-target effects on AA metabolism in whole blood by also measuring the effect of GK420 on eicosanoid release in the presence of exogenous free AA.
The human synovial sarcoma cell line SW982 (ATCC, London, UK) was used to measure AA release. The cells were maintained in Dulbecco’s Modified Eagle Medium (DMEM) supplemented with 10% FBS, 0.1 mg/mL gentamicin, and 0.3 mg/mL L-glutamine at 37 °C with 10% CO2, and experiments were performed at 3 days post-confluence. To measure AA release, the cells were labeled overnight with ^3H-AA (0.4 μCi/mL) in serum-free DMEM and then washed twice with PBS containing fBSA (2 mg/mL) to remove unincorporated radioactivity. The inhibitors, or DMSO vehicle control, were subsequently added to the cells for 1 hour prior to stimulation with 10 ng/mL IL-1β for 4 h. Supernatants were collected and centrifuged at 300 × g for 5 min to clear them of detached cells and adherent cells were dissolved in 1 N NaOH. The ^3H-AA was assessed by liquid scintillation counting (LS 6500 Multi-Purpose Scintillation Counter, Beckman Coulter, Inc., USA) and the results are given as the inhibition of released ^3H-AA in the supernatants relative to total ^3H-AA incorporated into the cells, as described. EC50 values were calculated by fitting the % inhibition data to a three-parameter dose-response curve in GraphPad prism v10.4.0. Experiments were performed in technical triplicates and repeated at least three times.

[4] = 0.091 mole fraction, read-out: GVIA iPLA2 % Inhib
[5] = average of triplicates, read-out: iPLA2 % inhibition at 0.091 mole fraction, average
[6] = individual technical replicate, read-out: iPLA2 % inhibition at 0.091 mole fraction
[7] = 0.091 mole fraction, read-out: GV sPLA2 % Inhib
[8] = average of triplicates, read-out: sPLA2 % inhibition at 0.091 mole fraction, average
[9] = individual technical replicate, read-out: sPLA2 % inhibition at 0.091 mole fraction
[10] = 0.2 µM, individual biological replicate
[11] = 1 µM, individual biological replicate
[12] = 5 µM, individual biological replicate
[13] = Homo sapiens, SW982, 1 µM, individual biological replicate, read-out: % inhibition of stimulated AA release
[14] = Homo sapiens, individual biological replicate
[15] = Homo sapiens, SW982, 4 h, 1 µM inhibitor, IL-1β 4 h, mean ± stdev, read-out: AA release % Inhib
[16] = Homo sapiens, IL-1β 4 h, 0.2, 1 or 5 µM inhibitor, read-out: AA release EC50 µM (95% CI)
[17] = Homo sapiens, [Agonist] vs. Response (three parameters)
[18] = Homo sapiens, [Agonist] vs. Response (three parameters), read-out: EC50 best-fit value, AA release

Structure (SMILES) | inhibition at 0.091 mole fraction [1, 4] | inhibition at 0.091 mole fraction [1, 5] | inhibition at 0.091 mole fraction [1, 6] | inhibition at 0.091 mole fraction [2, 7] | inhibition at 0.091 mole fraction [2, 8] | inhibition at 0.091 mole fraction [2, 9] | % inhibition of stimulated AA release [3, 10] | % inhibition of stimulated AA release [3, 11] | % inhibition of stimulated AA release [3, 12] | inhibition at 1 µM [3, 13] | inhibition at 5 µM [3, 14] | inhibition at 1 µM [3, 15] | EC50 [3, 16] | IC50 [3, 17] | EC50 [3, 18] | inhibition at 0.2 µM ([3]; Homo sapiens, SW982, 0.2 µM, individual biological replicate)
CCCCCCCCc1ccc(OCC(=O)c2nc(C(=O)OCC)cs2)cc1 [GK401] | 40% | 39.8% | 41.2% | 46% | 46.1% | 45.9% | 23.49% and 44.31% and 23.09% and 42.93% | 46.19% and 56.11% and 60.73% | 83.12% and 89.8% and 99.4% | 49.8% | 92.1% | 53 ± 6% | 0.63 µM | 0.63 µM | 0.63 µM | –
CCCCCCCCc1ccc(OC(C)C(=O)c2nc(C(=O)OC)cs2)cc1 (stereo not shown) [GK402] | 61% | 60.8% | 59.9% | 50% | 49.5% | 50.4% | 6.56% and 7.69% and 18.19% | 17.63% and 31.62% | 31.01% and 44.57% | 18.5% | 36.7% | 23 ± 8% | 6.7 µM | 6.7 µM | 6.7 µM | –
COC(=O)c1csc(C(=O)COc2ccc(Oc3ccccc3)cc2)n1 [GK403] | 34% | 34.3% | 33.6% | 32% | – | 27.6% | 11.19% and -0.79% and 22.56% and 22.92% | 71.06% and 44.35% and 48.83% and 61.77% | 83.19% and 96.79% and 91.92% | – | 101% | 57 ± 12% | 0.79 µM | 0.793 µM | 0.793 µM | –
CCCCCCOc1ccc(SCC(=O)c2nc(C(=O)OC)cs2)cc1 [GK419] | 0% | 0% | 0% | 29% | 29.2% | 33.4% | 23.74% and 36.06% and 29.89% and 8.79% | 51.4% and 93.19% and 85.38% and 54.33% | 98.65% and 99.61% and 98.35% and 63.6% | – | – | 71 ± 21% | 0.5 µM | 0.495 µM | 0.495 µM | –
CCCCCCCOc1ccc(OCC(=O)c2nc(C(=O)OC)cs2)cc1 [GK420] | 0% | 0% | 0% | 46% | 46.4% | 48.2% | 55.97% and 44.95% and 68.85% and 89.01% | 102.49% and 78.04% and 96.65% and 110.97% | 103.28% and 116.15% and 112.68% | – | 119% | 97 ± 14% | 0.09 µM | 0.0942 µM | 0.0943 µM | –
CCCCCCSc1ccc(OCC(=O)c2nc(C(=O)OC)cs2)cc1 [GK427] | 7.5% | 7.5% | – | 44% | 43.6% | 39.7% | 24.46% and 29.82% and 29.25% | 49.86% and 62.69% | 90.15% and 92.25% and 90.43% | 55.8% | 84% | 56 ± 5% | 0.67 µM | 0.671 µM | 0.671 µM | 26.4%
COC(=O)c1csc(C(=O)C(C)Oc2ccc(Oc3ccccc3)cc2)n1 (stereo not shown) [GK428] | 54% | 53.6% | 54.3% | 36% | 36.4% | 28.3% | 5.86% and -31.46% and 2.89% and 15.93% | 17.3% and 4.11% and 8.14% and 18.84% | 51.1% and 33.6% and 14.73% and 37.63% | – | – | 12 ± 7% | 9.34 µM | 9.34 µM | 9.34 µM | –
CCCCCCCOc1ccc(OC(C)C(=O)c2nc(C(=O)OC)cs2)cc1 (stereo not shown) [GK439] | 67% | 66.9% | 68.3% | 53% | 53.3% | 50.7% | 39.77% and 13.25% and 29.88% and 48.17% | 95.13% and 73.24% and 73.33% and 76.5% | 98.88% and 99.59% and 96.75% | – | 116% | 80 ± 10% | 0.32 µM | 0.325 µM | 0.325 µM | –
CCCCCCCCc1ccc(OCC(=O)c2nc(C(=O)OC)cs2)cc1 [GK470] | – | – | – | – | – | – | 11.2% and 24.55% and 57.46% and 50.18% | 71.51% and 64.93% and 67.46% | 105% and 107.21% and 94.17% | 62.7% | 110% | 67 ± 4% | 0.38 µM | 0.385 µM | 0.385 µM | –
